Source: patent US20260042755A1, “GPR6 INVERSE AGONISTS” (MapLight Therapeutics, Inc., priority 2022, published 2026)

Tests used:
GPR6 = molecular target: T1, GPR6 (Homo sapiens, UniProt P46095); test: GPR6 antagonist functional cAMP assay (LANCE Ultra cAMP TR-FRET, CHO cells stably expressing GPR6); assay type: cell-based
T1 construct: expressed in transfected cells; host or cells: CHO cells
Description: (§1) Example 56. GPR6 and GPR3 Antagonist Functional cAMP Assay
(§2) CHO cells stably expressing GPR6 or GPR3 receptors were dissociated from cell culture flasks and incubated for 2 h at 37° C. in a 10 cm dish in a humidified incubator. Cells were dissociated, counted to have 1e6 cells/mL (4.5e6 cells needed/384-well plate), washed once in starved media, than in D-PBS and finally suspended in assay buffer (Krebs-Ringer Bicarbonate Buffer with 1800 mg/L glucose, without calcium chloride and sodium bicarbonate (Sigma) in the presence of 0.1% BSA and 150 μM of Ro 20-1724 Phosphodiesterase inhibitor).
(§3) Cells in suspension from above were plated in 384-well white Optiplate (PerkinElmer) at 10,000 cells/well/10 μl, briefly centrifuged prior direct addition of compounds ([…]) in 10 mM DMSO using a Tecan D300e Digital Dispenser, final DMSO in each well was normalized to 0.1%. Cells were incubated in the presence of compounds for 45 min at 37° C. in a humidified incubator.
(§4) To measure cAMP levels, LANCE® Ultra cAMP assay (Perkin Elmer), a homogeneous time-resolved fluorescence resonance energy transfer (TR-FRET) immunoassay was used following manufacturer's recommendations. Plates were shaken for 1 h at room temperature before reading on a Tecan InfiniteF200Pro multi-mode plate reader using standard FRET settings (Excitation 340 nm, Emission at 615 nm). FRET values were reported as readings obtained at 665 nm. Data were normalized to DMSO (0.1%) and reference compounds (100%) and fit to a 4-parameter logistical fit to generate antagonist IC50s.

GPR3 = molecular target: T2, GPR3 (Homo sapiens, UniProt P46089); test: GPR3 antagonist functional cAMP assay (LANCE Ultra cAMP TR-FRET, CHO cells stably expressing GPR3); assay type: cell-based
T2 construct: expressed in transfected cells; host or cells: CHO cells
T2 sequence (P46089 whole entry, species assumed): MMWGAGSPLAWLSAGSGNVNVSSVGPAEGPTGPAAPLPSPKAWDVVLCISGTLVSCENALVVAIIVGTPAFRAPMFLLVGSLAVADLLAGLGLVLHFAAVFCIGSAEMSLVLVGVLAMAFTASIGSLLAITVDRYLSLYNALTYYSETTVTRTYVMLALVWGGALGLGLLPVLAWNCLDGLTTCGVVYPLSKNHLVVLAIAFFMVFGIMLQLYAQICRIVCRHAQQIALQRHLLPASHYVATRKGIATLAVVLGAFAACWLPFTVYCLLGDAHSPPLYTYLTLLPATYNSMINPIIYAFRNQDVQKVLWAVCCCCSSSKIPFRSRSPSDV
Description: as §1, §2, §3, §4

[1] = CHO cells stably expressing GPR6, cAMP assay (Example 24)
[2] = CHO cells stably expressing GPR3, cAMP assay (Example 24)
[3] = procedure as described in Example 24

T1 sequence (P46095 whole entry): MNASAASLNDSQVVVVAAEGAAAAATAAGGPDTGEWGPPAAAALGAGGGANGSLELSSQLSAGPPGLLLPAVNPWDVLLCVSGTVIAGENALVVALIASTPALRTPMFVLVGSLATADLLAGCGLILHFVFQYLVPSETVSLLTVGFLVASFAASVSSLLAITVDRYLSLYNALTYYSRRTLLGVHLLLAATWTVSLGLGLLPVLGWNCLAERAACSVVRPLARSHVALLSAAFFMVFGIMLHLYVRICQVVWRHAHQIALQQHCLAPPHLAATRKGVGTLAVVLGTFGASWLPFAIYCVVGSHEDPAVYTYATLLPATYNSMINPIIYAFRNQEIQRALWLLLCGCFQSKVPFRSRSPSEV

IC50 (GPR6; [1])	IC50 (GPR3; [2])	Molecule	other results
1000 to 30000 nM	1000 to 30000 nM	1-(3-{6-acetyl-2-[4-(2,4- difluorophenoxy)piperidin- 1-yl]-5H,6H,7H,8H- pyrido[3,4-b]pyrazin-3- yl}-4H,5H,6H,7H- pyrazolo[1,5-a]pyrazin-5- yl)ethan-1-one [Compound 106]	–
–	–	1-[3-(1-methyl-4-pyrazolyl)-2-{4- [(o-nitrophenyl)methyl]-1- piperazinyl}-5,6,7,8-tetrahydro- 1,4,6-triaza-6-naphthyl]-1- ethanone [Compound 527]	IC50 (GPR6; CHO cells stably expressing GPR6, cAMP assay): 100 to 1000 nM; IC50 (GPR3; CHO cells stably expressing GPR3, cAMP assay): 1000 to 30000 nM
–	–	CC(C)(O)C(O)c1ncc2nc(-c3cnn(CF)c3)c(N3CCN(Cc4ccc(F)cc4F)CC3)nc2c1F (racemic) [Compound 797, 1-(2-{4-[(2,4-difluorophenyl)methyl]-1-piperazinyl}-8-fluoro-3-[1-(fluoromethyl)-4-pyrazolyl]-1,4,6-triaza-7-naphthyl)-2-methyl-1,2-propanediol]	IC50 (GPR6; procedure of Example 24): 100 to 1000 nM; IC50 (GPR3; procedure of Example 24): 1000 to 30000 nM
–	–	CC1CN(Cc2ccc(F)cc2F)CCN1c1nc2ccncc2nc1-c1cn[nH]c1 (single isomer, unassigned) [Compound 45, 4-[(2,4-difluorophenyl)methyl]-2-methyl-1-[3-(1H-pyrazol-4-yl)pyrido[3,4-b]pyrazin-2-yl]piperazine]	IC50 (GPR6; [3]): 1000 to 30000 nM; IC50 (GPR3; [3]): 1000 to 30000 nM
–	–	CC1CN(c2nc3ccncc3nc2-c2cn[nH]c2)CCN1Cc1ccc(F)cc1F (single isomer, unassigned) [Compound 49, 2-(4-(2,4-difluorobenzyl)-3-methylpiperazin-1-yl)-3-(1H-pyrazol-4-yl)pyrido[3,4-b]pyrazine]	IC50 (GPR6; [3]): 1000 to 30000 nM; IC50 (GPR3; [3]): 1000 to 30000 nM
1000 to 30000 nM	1000 to 30000 nM	COCC1CN(c2nc3ccncc3nc2-c2cn[nH]c2)CCN1Cc1ccc(F)cc1F (single isomer, unassigned) [Compound 89, 2-(4-(2,4-difluorobenzyl)-3-(methoxymethyl)piperazin-1-yl)-3-(1H-pyrazol-4-yl)pyrido[3,4-b]pyrazine]	–
1000 to 30000 nM	≥ 30000 nM	OCC1CN(c2nc3ccncc3nc2-c2cn[nH]c2)CCN1Cc1ccc(F)cc1F (single isomer, unassigned) [Compound 93, (4-(3-(1H-pyrazol-4-yl)pyrido[3,4-b]pyrazin-2-yl)-1-(2,4-difluorobenzyl)piperazin-2-yl)methanol]	–
1000 to 30000 nM	1000 to 30000 nM	COc1cncc(-c2nc3cnc(C(O)C(C)(C)O)cc3nc2N2CCN(Cc3ccc(F)cc3F)CC2)n1 (single isomer, unassigned) [Compound 94, 1-(2-(4-(2,4-difluorobenzyl)piperazin-1-yl)-3-(6-methoxypyrazin-2-yl)pyrido[3,4-b]pyrazin-7-yl)-2-methylpropane-1,2-diol]	–
1000 to 30000 nM	1000 to 30000 nM	C[C@@H]1CN(Cc2ccc(F)cc2F)CCN1c1nc2ccncc2nc1-c1cnn(C)c1 (single isomer, unassigned) [Compound 224]	–
100 to 1000 nM	1000 to 30000 nM	C[C@H]1CN(Cc2ccc(F)cc2F)CCN1c1nc2ccncc2nc1-c1cnn(C)c1 (single isomer, unassigned) [Compound 225]	–
1000 to 30000 nM	1000 to 30000 nM	CC(=O)N1CCc2nc(N3CCN(Cc4ccc(F)cc4F)C[C@H]3C)c(-c3cnn(C)c3)nc2C1 (single isomer, unassigned) [Compound 231]	–
1000 to 30000 nM	1000 to 30000 nM	CC(=O)N1CCc2nc(N3CCN(Cc4ccc(F)cc4F)C[C@@H]3C)c(-c3cnn(C)c3)nc2C1 (single isomer, unassigned) [Compound 232]	–
1000 to 30000 nM	1000 to 30000 nM	COC[C@H]1CN(Cc2ccc(F)cc2F)CCN1c1nc2ccncc2nc1-c1cnn(C)c1 (single isomer, unassigned) [Compound 238]	–
1000 to 30000 nM	1000 to 30000 nM	COC[C@@H]1CN(Cc2ccc(F)cc2F)CCN1c1nc2ccncc2nc1-c1cnn(C)c1 (single isomer, unassigned) [Compound 240]	–
1000 to 30000 nM	1000 to 30000 nM	COC[C@@H]1CN(Cc2ccc(F)cc2F)CCN1c1nc2c(nc1-c1cnn(C)c1)CN(C(C)=O)CC2 (single isomer, unassigned) [Compound 244]	–
1000 to 30000 nM	1000 to 30000 nM	COC[C@H]1CN(Cc2ccc(F)cc2F)CCN1c1nc2c(nc1-c1cnn(C)c1)CN(C(C)=O)CC2 (single isomer, unassigned) [Compound 249]	–
100 to 1000 nM	1000 to 30000 nM	Cn1cc(-c2nc3cnc([C@@H](O)C(C)(C)O)cc3nc2N2CCN(Cc3ccc(F)cc3F)CC2)cn1 (single isomer, unassigned) [Compound 261]	–
100 to 1000 nM	1000 to 30000 nM	Cn1cc(-c2nc3cnc([C@H](O)C(C)(C)O)cc3nc2N2CCN(Cc3ccc(F)cc3F)CC2)cn1 (single isomer, unassigned) [Compound 262]	–

IC50 (GPR6; [1])	IC50 (GPR3; [2])	Molecule	other results
–	–	CC(=O)N1CCc2nc(N3CCC(Oc4ccc(F)cc4F)CC3)c(-c3cnn([C@@H](C)C#N)c3)nc2C1 (single isomer, unassigned) [Compound 271]	IC50 (GPR6; procedure of Example 24): 100 to 1000 nM; IC50 (GPR3; procedure of Example 24): 1000 to 30000 nM
–	–	CC(=O)N1CCc2nc(N3CCC(Oc4ccc(F)cc4F)CC3)c(-c3cnn([C@H](C)C#N)c3)nc2C1 (single isomer, unassigned) [Compound 272]	IC50 (GPR6; procedure of Example 24): 100 to 1000 nM; IC50 (GPR3; procedure of Example 24): 1000 to 30000 nM
–	–	CCn1cc(-c2nc3c(nc2N2CCC(Oc4ccc(F)cc4F)CC2)CCN(C[C@@H](O)CO)C3)cn1 (single isomer, unassigned) [Compound 290]	IC50 (GPR6; procedure of Example 24): 100 to 1000 nM; IC50 (GPR3; procedure of Example 24): 1000 to 30000 nM
–	–	Cn1cc(-c2nc3cnccc3nc2N2CCN(Cc3ccc(F)cc3F)C[C@H]2CO)cn1 (single isomer, unassigned) [Compound 292]	IC50 (GPR6; procedure of Example 24): ≥ 30000 nM; IC50 (GPR3; procedure of Example 24): 1000 to 30000 nM
–	–	CC(=O)N1CCc2nc(N3CC[C@H](Oc4ccc(F)cc4F)[C@@H](F)C3)c(-c3cnn(C)c3)nc2C1 (single isomer, unassigned) [Compound 331]	IC50 (GPR6; procedure of Example 24): 1000 to 30000 nM; IC50 (GPR3; procedure of Example 24): 1000 to 30000 nM
–	–	Cn1cc(-c2nc3cnccc3nc2N2CC[C@H](Oc3ccc(F)cc3F)[C@H](F)C2)cn1 (single isomer, unassigned) [Compound 332]	IC50 (GPR6; procedure of Example 24): 1000 to 30000 nM; IC50 (GPR3; procedure of Example 24): 1000 to 30000 nM
–	–	Cn1cc(-c2nc3c(nc2N2CC[C@H](Oc4ccc(F)cc4F)[C@H](F)C2)CCN(Cc2ccccc2)C3)cn1 (single isomer, unassigned) [Compound 333]	IC50 (GPR6; procedure of Example 24): 1000 to 30000 nM; IC50 (GPR3; procedure of Example 24): ≥ 30000 nM
–	–	CC(=O)N1CCc2nc(N3CC[C@H](Oc4ccc(F)cc4F)[C@H](F)C3)c(-c3cnn(C)c3)nc2C1 (single isomer, unassigned) [Compound 334]	IC50 (GPR6; procedure of Example 24): 1000 to 30000 nM; IC50 (GPR3; procedure of Example 24): 1000 to 30000 nM
100 to 1000 nM	1000 to 30000 nM	Cn1cc(-c2nc3cnc([C@H](O)C(C)(C)O)cc3nc2N2CCC(Oc3ccc(F)cc3F)CC2)cn1 (single isomer, unassigned) [Compound 378, (Rel-S)-1-(2-(4-(2,4-difluorophenoxy)piperidin-1-yl)-3-(1-methyl-1H-pyrazol-4-yl)pyrido[3,4-b]pyrazin-7-yl)-2-methylpropane-1,2-diol]	–
100 to 1000 nM	1000 to 30000 nM	Cn1cc(-c2nc3cnc([C@@H](O)C(C)(C)O)cc3nc2N2CCC(Oc3ccc(F)cc3F)CC2)cn1 (single isomer, unassigned) [Compound 379, (Rel-R)-1-(2-(4-(2,4-difluorophenoxy)piperidin-1-yl)-3-(1-methyl-1H-pyrazol-4-yl)pyrido[3,4-b]pyrazin-7-yl)-2-methylpropane-1,2-diol]	–
100 to 1000 nM	1000 to 30000 nM	CC(C)(O)[C@H](O)c1cc2nc(N3CCN(Cc4ccc(F)cc4F)CC3)c(-c3cnn(C(F)F)c3)nc2cn1 (single isomer, unassigned) [Compound 396]	–
< 100 nM	1000 to 30000 nM	CC(C)(O)[C@@H](O)c1cc2nc(N3CCN(Cc4ccc(F)cc4F)CC3)c(-c3cnn(C(F)F)c3)nc2cn1 (single isomer, unassigned) [Compound 397]	–
100 to 1000 nM	1000 to 30000 nM	CCn1cc(-c2nc3c(nc2N2CCC(Oc4cc(Cl)ccc4Cl)CC2)CCN(C[C@@H](O)CO)C3)cn1 (single isomer, unassigned) [Compound 408]	–
100 to 1000 nM	1000 to 30000 nM	Cn1cc(-c2nc3cnc(C[C@@H](O)CO)cc3nc2N2CCC(Oc3ccc(F)cc3F)CC2)cn1 (single isomer, unassigned) [Compound 415]	–
100 to 1000 nM	1000 to 30000 nM	Cn1cc(-c2nc3cnc(C[C@H](O)CO)cc3nc2N2CCC(Oc3ccc(F)cc3F)CC2)cn1 (single isomer, unassigned) [Compound 416]	–
100 to 1000 nM	1000 to 30000 nM	CC(=O)N1Cc2nc(-c3cnn(C)c3)c(N3CCC(Oc4ccc(F)cc4F)CC3)nc2CC1C (single isomer, unassigned) [Compound 445]	–
–	1000 to 30000 nM	COc1nc(-c2nc3c(nc2N2CCC(Oc4ccc(F)cc4F)CC2)CCN(C(C)=O)C3)ccc1F [Compound 83, 1-{2-[4-(2,4-difluorophenoxy)piperidin-1-yl]-3-(5-fluoro-6-methoxypyridin-2-yl)-5H,6H,7H,8H-pyrido[3,4-b]pyrazin-6-yl}ethan-1-one]	–
